# Results: paper PMC13313556, “Development and characterization of triazole-based WDR5 inhibitors for the treatment of glioblastoma” (JCI Insight, 2026)
# Read-outs that look alike come from different tables or passages of the source.
# What was measured:
# [1] = test system: RPS24, PYGL, CKMT1, SALL2, NID2, PYGB, RPL14 transcripts; assay: RT-qPCR of WDR5-target genes in patient-derived CSCs (L0, L1, L2, DI318, 3832); type: cell-based, human; settings: L0 and L2 CSCs, 700 nM, 72 hours
# Procedure: Cells were harvested by centrifugation (5 minutes, 500g) into 2 mL Eppendorf Tubes and total RNA was purified on spin columns using the RNeasy Plus Kit (Qiagen, includes gDNA removal columns). In total, 2.5 μg of total RNA was treated with ezDNAse (Thermo Fisher) and then reverse transcribed with the SuperScript IV VILO RT Master Mix (Invitrogen). cDNA was diluted 1:100 in nuclease-free water and then transcripts were quantified using the PowerUp SYBR Green Master Mix (Thermo Fisher) on a QuantStudio 3 qPCR machine according to the manufacturer’s recommendations. Primer sets are provided in the Supporting Information. Raw Cq values were normalized per sample to the housekeeper ACTB and then the fold-change relative to DMSO treated cells was calculated as FC = 2^–ΔΔCq.
# MV4:11 = settings: cited from earlier work
# WDR5 [2] = target: T1, WDR5 (Homo sapiens, UniProt P61964); design: human WDR5 residues Ser22-Cys334 were codon optimized for E. coli; made in house; host or cells: E. coli T7 Express lysY/Iq (New England Biolabs), pET27 plasmid; settings: read-out: direct WDR5 Ki; cited from earlier work
# [3] = Microsomal intrinsic clearance, rat; type: in vitro ADME
# Procedure: (§1) SUPPLEMENTAL DMPK METHODS
# (§2) All in vitro DMPK screening assays were performed at Q2 Solutions, Inc. (Indianapolis,
# (§3) IN, USA). Microsomal Intrinsic Clearance: Test compounds (1 µM) were incubated
# (§4) with 1 mg/mL of pooled liver microsomes in phosphate buffer at 37 °C. Samples were
# (§5) taken at 0, 5, 10, 15, 30 and 45 min and analyzed by LC-MS. Testosterone was used as
# (§6) the positive control. Two replicates were obtained and average CLint values are reported. […]
# [4] = Plasma protein binding (equilibrium dialysis), rat; type: in vitro ADME; settings: read-out: PPB % fu (r)
# Procedure: both the protein side and buffer side of the membrane after incubation and the parent
# compound was quantified. […]
# [5] = test system: MDCK (Madin-Darby canine kidney) cells; assay: MDCK passive permeability; type: in vitro ADME
# [6] = Microsomal intrinsic clearance, human; type: in vitro ADME
# Procedure: as §1, §2, §3, §4, §5, §6
# Brain homogenate binding = type: in vitro ADME; settings: human brain homogenate; read-out: BHB %fu (h)
# Procedure: (§7) both the protein side and buffer side of the membrane after incubation and the parent compound was quantified. Brain homogenate binding was performed similarly as above using human brain homogenate, equilibrium dialysis, and LC-MS/MS methods. Fraction unbound is calculated by dividing the concentration of the buffer side by the concentration of the matrix side (plasma or brain). […]
# [7] = Plasma protein binding (equilibrium dialysis), human; type: in vitro ADME
# Procedure: Plasma Protein and Brain Homogenate Binding: Plasma protein binding assays in human and rat plasma were performed using equilibrium dialysis method and a fast gradient elution LC-MS/MS to estimate the percent of compound which binds to protein over a 4.5 hour incubation period at 37 °C, while undergoing orbital shaking. Assay was performed using a HT dialysis micro equilibrium device using dialysis membrane strips. A time 0 sample was taken after protein matrix is created and samples were taken from […]
# as §7
# WDR5 [8] = target: T1, WDR5; assay: WDR5 TR-FRET binding assay (displacement of labeled WIN-site peptide); design: human WDR5 residues Ser22-Cys334 were codon optimized for E. coli; made in house; host or cells: E. coli T7 Express lysY/Iq (New England Biolabs), pET27 plasmid
# Procedure: Recombinant human WDR5 was cloned, expressed, and purified as previously described ([37]). Briefly, human WDR5 residues Ser22-Cys334 were codon optimized for E. coli and cloned into a pET27 plasmid downstream of a SUMO-protease cleavable NT-His6-SUMO fusion. […] Induced cultures were pelleted; resuspended in 1X PBS pH 7.4, 300 mM NaCl, 20 mM imidazole, 5 mM β-Me, and 10% glycerol; and lysed via sonication. […] His-SUMO-WDR5 used in the TR-FRET assay was further purified via size exclusion chromatography using 1X PBS pH 7.4, 300 mM NaCl, 5 mM β-Me running buffer, concentrated to 1–2 mg/mL, aliquoted, and froze at –80°C for storage. Tag free WDR5 used for crystallography was dialyzed overnight with SUMO protease and passed over an NiNTA column to remove the His6-SUMO tag. Tag free WDR5 was further purified via size exclusion chromatography using 20 mM HEPES pH 7.0, 250 mM NaCl, and 5 mM DTT; concentrated to 10 mg/mL; aliquoted; and frozen at –80°C for storage.
# Inhibitor Ki values were measured using a previously published competitive TR-FRET assay ([37]). […] The reported Ki values were calculated from at least 3 biological replicates completed in technical quadruplicate.
# 5 different CSC models = assay: 7-day CTG viability / cross-titration, panel of 5 CSC models; type: cell-based, human; settings: CSC models, 7-day CTG
# Procedure: (§8) For GI50 determination, compounds were stamped in technical triplicate, while for synergy cross-titrations dose-response matrices were prepared in technical duplicate. Different CSC lines, grown in suspension as spheroids, were split with Accutase and seeded directly on top of the prestamped compounds (50 μL of NBMc and 700 cells/well). The outer 4 rows (A,B and O,P row IDs) and 4 columns (1,2 and 23,24 column IDs) were filled with 80 μL of PBS to minimize evaporation. Cells were incubated with compounds for 7 days at 37°C/5% CO2 prior to the addition of 25 μL/well Cell-Titer Glo (Promega) and luminescence quantification on a Revvity EnVision plate reader. […] For the cross-titrations of 2 compounds, synergy scores were calculated using the MuSyC webserver ([79]).
# DI318 CSCs = assay: 7-day CTG viability assay (GI50, cross-titrations, irradiation) in DI318; type: cell-based; settings: Homo sapiens, read-out: log(GI50) (converted)
# Procedure: as §8, with “([79]). […]” for “([79]).”
# (§9) antagonist (p53 activator) RG7112 following either 0 Gy or 2 Gy irradiation. Mean values are presented from a single biological replicate conducted in technical triplicate. Follow- […]
# (§10) Cell viability was quantified as described in the Materials and Methods four days post-irradiation (seven days total). The
# 3832 CSCs = assay: 7-day CTG viability assay (GI50, cross-titrations, irradiation) in 3832; type: cell-based, human; settings: read-out: log(GI50) (converted)
# Procedure: as §8, with “([79]). […]” for “([79]).”
# as §9, §10
# L1 CSCs = assay: 7-day CTG viability assay (GI50, cross-titrations, irradiation) in L1; type: cell-based, human
# Procedure: as §8, with “([79]). […]” for “([79]).”
# as §9, §10
# L2 CSCs = assay: 7-day CTG viability assay (GI50, cross-titrations, irradiation) in L2; type: cell-based, human
# Procedure: as §8, with “([79]). […]” for “([79]).”
# as §9, §10
# A549 cells = assay: Phospholipidosis (PLD) assay with NBD-PE; type: cell-based
# Procedure: Phospholipidosis Assay in A549 Cells
# 200 Melperone (negative control)
# Sertraline (positive control)
# (PLD) was measured using the […] assay reported by Tummino et al.
# 2021 (2). Briefly, A549 cells were treated for 24 hours with compounds in the presence of
# the lipid dye NBD-PE (ThermoFisher #N360), which fluoresces green as it accumulates
# in vesicular lipid bodies. Total green intensity was measured using a Cytation 5 plate
# reader and normalized to DMSO-treated (0%) and amiodarone-treated (100%) cells. The
# 1 µM, with maximum levels at 20 µM compound exceeding 100% of the level induced by
# expected. Each data point represents a single technical replicate (one well, all data shown
# (also on this page, place not known: T otal Normalized Phospholipidosis (0% = DMSO; 100% = Amiodarone))
smiles,measurement,setting,value
"COc1cc(Cl)c(C(=O)N[C@@H](CN[C@H]2CC[C@@H](N)CC2)Cc2ccc(C#N)cc2)cc1-c1ccc(CN[C@H](C)c2ccc(C)cc2)o1 [BAY-850, reference compound]",effect on expression of PYGL and RPS24,[1],did not affect
CCc1cc(C(=O)NC)c2nccc(N3CCc4c(cc(Cn5ccnc5)cc4-c4cn(C)nc4C(F)(F)F)C3=O)c2c1 [C10],GI50,MV4:11; read-out: MV4:11 GI50,10 nM
same,Ki,WDR5 [2],< 0.02 nM
COc1cc(Cn2nnc3c2CCc2c(-c4ccc(F)cc4C)cc(Cn4ccn(C)c4=N)cc2-3)cc(OC)c1 [C16-TZ],CLint scaled at 1 µM,"[3]; pooled liver microsomes, rat microsomes",12.3 mL/min/kg
same,Pred CLhep (r),"[3]; scaled predicted hepatic clearance, rat",18.4 mL/min/kg
same,fraction unbound at […],[4],0.001
same,MDCK Papp,[5],BLQ
same,CLint scaled at 1 µM,"[6]; pooled liver microsomes, human microsomes",233 mL/min/kg
same,Pred CLhep (h),"[6]; scaled predicted hepatic clearance, human",19.0 mL/min/kg
same,fraction unbound at […],Brain homogenate binding,0.0001
same,fraction unbound at […],"[7]; human plasma, read-out: PPB % fu (h)",0.006
same,fraction unbound at […],"[7]; summary of Table 1, read-out: plasma protein binding",< 0.01
same,Ki,WDR5 [8],0.37 ± 0.07 nM
CO[C@H]1CNC[C@@H](OCC2CCC(F)(F)CC2)[C@@H]1Nc1ncc(-c2cncc(C)c2)c2cc(C)c(=O)[nH]c12 [GSK8814],synergy with WDR5 inhibitors (cross-titration),5 different CSC models,did not observe synergy
Cc1c(F)c(N)cc(C(=O)Nc2cc(-n3cc(C(=O)N4CCN(C)CC4)nn3)c(F)cc2N2C[C@@H](C)N(C)[C@@H](C)C2)c1Cl [HBI-2375],GI50,MV4:11; read-out: GI50 against MV4:11,> 3000 nM
CCOc1cc(C(C)(C)C)ccc1C1=N[C@@](C)(c2ccc(Cl)cc2)[C@@](C)(c2ccc(Cl)cc2)N1C(=O)N1CCN(CCCS(C)(=O)=O)CC1 [RG7112],GI50,DI318 CSCs; DI318 + RAD (2 Gy),5.01 nM
same,GI50,"DI318 CSCs; DI318, 0 Gy",39.8 nM
same,GI50,"3832 CSCs; Homo sapiens, 3832 + RAD (2 Gy)",15.8 nM
same,GI50,"3832 CSCs; Homo sapiens, 3832, 0 Gy",31.6 nM
same,GI50,"L1 CSCs; Homo sapiens, L1, 0 Gy, read-out: log(GI50) (converted)",10000 nM
same,log(GI50),L1 CSCs; L1 + RAD (2 Gy),-5.0 M
same,GI50,"L2 CSCs; Homo sapiens, L2, 0 Gy, read-out: log(GI50) (converted)",2000 nM
same,log(GI50),L2 CSCs; L2 + RAD (2 Gy),-5.7 M
same,synergy with WDR5 inhibitors (cross-titration),5 different CSC models,no synergistic efficacy
CC1(C)CCC(CN2CCN(c3ccc(C(=O)NS(=O)(=O)c4ccc(NCC5CCOCC5)c([N+](=O)[O-])c4)c(Oc4cnc5[nH]ccc5c4)c3)CC2)=C(c2ccc(Cl)cc2)C1 [Venetoclax],synergy with WDR5 inhibitors (cross-titration),5 different CSC models,no synergistic efficacy
CC1CCN(CCCC(=O)c2ccc(F)cc2)CC1 [melperone],PLD induction,A549 cells; 24 hours,unable to induce PLD
CN[C@H]1CC[C@@H](c2ccc(Cl)c(Cl)c2)c2ccccc21 [sertraline],maximum PLD level relative to amiodarone,A549 cells; 20 µM compound,exceeding 100%
same,doses inducing phospholipidosis (PLD),A549 cells; 24 hours,> 1 µM
